Here are results for four compounds from patent US20100137230A1, “NEW PYRIDIN-2-ONE COMPOUNDS” (priority 2007, published 2010).

Common to all, as to assay type: cell-based
The subject of assay [1] is panel of Gram positive and Gram negative bacteria. Nature of the assay: in vitro screens against a panel of Gram positive and Gram negative bacteria. The method, then: (§1) All examples were tested against a panel of Gram positive and Gram negative bacteria. […] Typical MIC ranges […] are: S. aureus (MRSA) 0.06-2 (linezolid 1-2, ciprofloxacin 0.5-32) S. aureus (MSSA) 0.06-2 (linezolid 1-2, ciprofloxacin 0.125-1) E. faecalis 0.02-1 (linezolid 0.5-2, ciprofloxacin 0.5-32) E. faecium 0.02-1 (linezolid 1-2, ciprofloxacin 0.25-32) S. pneumoniae 0.02-1 (linezolid 0.125-1, ciprofloxacin 1-4) However, cleavage of saccharide modified compounds such as compounds from example 1 and 2 by esterases and glucosidases that occur in human plasma yields the corresponding antibiotically active compounds.

The test system of another assay is S. pneumoniae. The assay is described as follows: MIC against panel of bacteria: S. pneumoniae. On the procedure:
as §1

The subject of a further assay is S. aureus (MRSA). The assay is described as follows: MIC against panel of bacteria: S. aureus (MRSA). On the procedure: as §1
The test system of a further assay is E. faecalis. The assay is described as follows: MIC against panel of bacteria: E. faecalis. On the procedure:
as §1

The next assay deals with S. aureus (MSSA). Nature of the assay: MIC against panel of bacteria: S. aureus (MSSA). The method, then:
as §1

The test system of another assay is E. faecium. Nature of the assay: MIC against panel of bacteria: E. faecium. The method, then:
as §1

As to `CC(=O)NC[C@H]1CN(c2ccc(OCC3(OC(=O)[C@H]4O[C@@H](O)[C@H](O)[C@@H](O)[C@@H]4O)CCN(c4c(F)cn5c(=O)c(C(=O)O)cc(C6CC6)c5c4C)CC3)c(F)c2)C(=O)O1` [Example 1, 8-[4-{4-[(S)-5-(Acetylamino-methyl)-2-oxo-oxazolidin-3-yl]-2-fluoro-phenoxymethyl}-4-((2S,3S,4S,5R,6R)-3,4,5,6-tetrahydroxy-tetrahydro-pyran-2-carbonyloxy)-piperidin-1-yl]-1-cyclopropyl-7-fluoro-9-methyl-4-oxo-4H-quinolizine-3-carboxylic acid], the “activity in the in vitro screens” value in assay [1] is “inactive”.
On the same count and under the same terms, the entry for `CC(=O)NC[C@H]1CN(c2ccc(OCC3(OC(=O)[C@H](O)[C@@H](O)[C@H](O)[C@H](O)CO)CCN(c4c(F)cn5c(=O)c(C(=O)O)cc(C6CC6)c5c4C)CC3)c(F)c2)C(=O)O1` [Example 2, 8-[4-{4-[(S)-5-(Acetylamino-methyl)-2-oxo-oxazolidin-3-yl]-2-fluoro-phenoxymethyl}-4-((2R,3S,4R,5R)-2,3,4,5,6-pentahydroxy-hexanoyloxy)-piperidin-1-yl]-1-cyclopropyl-7-fluoro-9-methyl-4-oxo-4H-quinolizine-3-carboxylic acid] is “inactive”.
For the compound `O=C(O)c1cn(C2CC2)c2cc(N3CCNCC3)c(F)cc2c1=O` [ciprofloxacin], the Typical MIC ranges in the assay on S. pneumoniae was 1 to 4 µg/mL; in the assay with S. aureus (MRSA), 0.5 to 32 µg/mL; with E. faecalis, 0.5 to 32 µg/mL; with S. aureus (MSSA) it was 0.125 to 1 µg/mL; in the assay with E. faecium, 0.25 to 32 µg/mL.
`CC(=O)NC[C@H]1CN(c2ccc(N3CCOCC3)c(F)c2)C(=O)O1` [linezolid]: the “Typical MIC ranges” value in the assay on S. pneumoniae lay within 125 to 1000 µg/mL; with S. aureus (MRSA), 1 to 2 µg/mL; in the assay with E. faecalis it was 0.5 to 2 µg/mL.
